Measured values published in ChEMBL document CHEMBL1158131, “Daryamides A-C, weakly cytotoxic polyketides from a marine-derived actinomycete of the genus Streptomyces strain CNQ-085” (J Nat Prod, 2006).
≈ marks a conversion by molar mass, not a printed value. Calls of active or inactive are those of the source. The rule behind the calls is not given here.

Legend:
[1] = tested on: Staphylococcus aureus; assay: Antibacterial activity against methicillin-resistant Staphylococcus aureus; type: functional, organism-based
[2] = tested on: HCT-116; assay: Cytotoxicity against human HCT116 cells; type: functional, cell-based
[3] = tested on: Candida albicans; assay: Antifungal activity against Candida albicans; type: functional

Compound	Activity [1]	IC50 [2] [µg/mL]	Activity [3]	MIC [3] [µg/mL]
CC(C)/C=C/C=C/C(=O)NC1=CC(O)(CCC(N)=O)C=CC1=O (configuration not stated) [DARYAMIDE C]	inactive	10 (≈ 31.5 µM)	inactive	
CC(C)C/C=C/C=C/C(N)=O	inactive	21.7 (≈ 142 µM)	inactive	
CC(C)C/C=C/C=C/C(=O)NC1=C[C@@](O)(CCC(N)=O)[C@H](O)CC1=O [DARYAMIDE A]	inactive	3.15 (≈ 8.99 µM)		62.5 (≈ 178 µM)
CC(C)C/C=C/C=C/C(=O)NC1=CC(O)(CCC(N)=O)C=CC1=O (configuration not stated) [DARYAMIDE B]	inactive	9.99 (≈ 30.1 µM)		125 (≈ 376 µM)
